Experimental findings from patent publication US11572590B2, “Methods for evaluating tumor cell spheroids using 3D microfluidic cell culture device” (Dana-Farber Cancer Institute, Inc., priority 2017, dated 2023) are described below.

As a reminder, the inhibition is the percentage by which the read-out fell short of the control.

The target in experiment [1] is off-target kinases (Homo sapiens, UniProt O75914). The experiment in a line: SelectScreen Kinase Profiling, single point inhibition and IC50 for off-target kinases. Format: biochemical. The conditions noted are these: PAK3, ZLYTE, ATP Km app.
off-target kinases (Homo sapiens, UniProt O75914), sequence (O75914 whole entry): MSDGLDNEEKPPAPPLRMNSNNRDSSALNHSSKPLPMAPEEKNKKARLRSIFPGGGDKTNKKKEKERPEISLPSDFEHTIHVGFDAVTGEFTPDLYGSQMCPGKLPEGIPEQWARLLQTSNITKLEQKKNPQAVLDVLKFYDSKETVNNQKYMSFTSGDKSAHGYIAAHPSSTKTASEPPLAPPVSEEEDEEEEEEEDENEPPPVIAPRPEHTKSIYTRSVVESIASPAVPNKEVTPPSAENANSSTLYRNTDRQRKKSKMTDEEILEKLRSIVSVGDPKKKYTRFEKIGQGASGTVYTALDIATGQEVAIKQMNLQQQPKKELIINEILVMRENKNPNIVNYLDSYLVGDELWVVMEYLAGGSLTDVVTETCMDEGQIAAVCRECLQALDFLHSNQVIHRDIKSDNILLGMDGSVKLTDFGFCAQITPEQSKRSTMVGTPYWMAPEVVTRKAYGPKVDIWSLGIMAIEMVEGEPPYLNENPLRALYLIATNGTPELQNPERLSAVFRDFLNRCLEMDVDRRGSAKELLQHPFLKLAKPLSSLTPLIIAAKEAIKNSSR
The target in experiment [2] is T1, off-target kinases (Homo sapiens, UniProt Q96PY6).
T1 sequence (Q96PY6 1-1258): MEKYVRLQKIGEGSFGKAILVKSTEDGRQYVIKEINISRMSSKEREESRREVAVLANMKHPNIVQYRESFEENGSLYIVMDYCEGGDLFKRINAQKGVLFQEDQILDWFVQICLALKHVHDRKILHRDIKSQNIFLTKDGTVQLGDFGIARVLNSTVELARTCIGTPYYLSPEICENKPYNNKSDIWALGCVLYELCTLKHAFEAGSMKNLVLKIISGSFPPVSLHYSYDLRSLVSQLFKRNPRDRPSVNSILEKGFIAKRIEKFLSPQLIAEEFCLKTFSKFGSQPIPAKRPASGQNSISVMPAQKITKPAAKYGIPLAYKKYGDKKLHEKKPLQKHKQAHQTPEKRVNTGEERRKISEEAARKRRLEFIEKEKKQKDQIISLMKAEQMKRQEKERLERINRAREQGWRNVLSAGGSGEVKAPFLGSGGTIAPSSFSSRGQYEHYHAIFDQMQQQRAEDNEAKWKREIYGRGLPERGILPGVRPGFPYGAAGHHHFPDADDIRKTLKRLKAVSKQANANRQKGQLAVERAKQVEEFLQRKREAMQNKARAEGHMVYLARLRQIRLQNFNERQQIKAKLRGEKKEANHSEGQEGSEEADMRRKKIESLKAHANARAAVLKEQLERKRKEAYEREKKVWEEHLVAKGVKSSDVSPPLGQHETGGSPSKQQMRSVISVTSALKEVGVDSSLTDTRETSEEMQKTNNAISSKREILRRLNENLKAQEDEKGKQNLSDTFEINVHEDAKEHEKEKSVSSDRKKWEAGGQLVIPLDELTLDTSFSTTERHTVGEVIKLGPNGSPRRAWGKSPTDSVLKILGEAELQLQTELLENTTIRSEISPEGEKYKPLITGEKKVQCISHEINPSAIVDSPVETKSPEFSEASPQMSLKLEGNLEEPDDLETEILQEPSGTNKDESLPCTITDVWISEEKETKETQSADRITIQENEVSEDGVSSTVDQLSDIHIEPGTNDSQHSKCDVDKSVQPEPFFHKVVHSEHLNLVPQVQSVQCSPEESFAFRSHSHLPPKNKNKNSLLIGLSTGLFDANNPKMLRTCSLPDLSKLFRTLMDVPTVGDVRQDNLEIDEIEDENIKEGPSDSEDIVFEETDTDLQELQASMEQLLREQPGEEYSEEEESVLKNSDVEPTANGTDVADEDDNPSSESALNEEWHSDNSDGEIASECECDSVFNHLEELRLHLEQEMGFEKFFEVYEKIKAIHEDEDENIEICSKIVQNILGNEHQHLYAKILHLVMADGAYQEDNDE
Described as above. It counts as biochemical. Conditions: NEK1, ATP Km app, ZLYTE.

Read-outs that look alike come from different tables or passages of the source.

For the compound `N#Cc1cc(-c2ncnc(Nc3ccc(N4CCN(C5COC5)CC4)cc3)n2)ccc1OC1CCOCC1` [Compound 1, 5-(4-((4-(4-(oxetan-3-yl)piperazin-1-yl)phenyl)amino)-1,3,5-triazin-2-yl)-2-((tetrahydro-2H-pyran-4-yl)oxy)benzonitrile], the inhibition came out at 7% on off-target kinases [1] (read-out: % Inhibition 1); 2% on off-target kinases [1] (read-out: % Inhibition 2); 5% at off-target kinases [1] (read-out: % Inhibition Avg); 68% on off-target kinases [2] (read-out: % Inhibition 1); 70% at off-target kinases [2] (read-out: % Inhibition 2); 69% at off-target kinases [2] (read-out: % Inhibition Avg).
